Measured values taken from the NIST ThermoML archive (doi:10.1016/j.fluid.2008.10.003).

Assay: isobaric coefficient of expansion; xn = mol fraction of the nth substance listed
Conditions: calorimetric method

CCCCCCO [hexan-1-ol] + CCCCCC
isobaric coefficient of expansion
Conditions	5000 kPa	10000 kPa	15000 kPa	20000 kPa	25000 kPa	30000 kPa	35000 kPa	40000 kPa	45000 kPa	50000 kPa
328.15 K, x1 = 0.0321	0.00143 1/K	0.00135 1/K	0.00128 1/K	0.00122 1/K	0.00117 1/K	0.00112 1/K	0.00108 1/K	0.00104 1/K	0.00101 1/K	0.000976 1/K
328.15 K, x1 = 0.041	0.00143 1/K	0.00135 1/K	0.00128 1/K	0.00122 1/K	0.00117 1/K	0.00112 1/K	0.00108 1/K	0.00103 1/K	0.001 1/K	0.000972 1/K
328.15 K, x1 = 0.0946	0.00141 1/K	0.00133 1/K	0.00126 1/K	0.0012 1/K	0.00116 1/K	0.00111 1/K	0.00107 1/K	0.00103 1/K	0.001 1/K	0.000972 1/K
328.15 K, x1 = 0.1679	0.00136 1/K	0.0013 1/K	0.00123 1/K	0.00118 1/K	0.00113 1/K	0.00109 1/K	0.00105 1/K	0.00101 1/K	0.000982 1/K	0.000952 1/K
328.15 K, x1 = 0.2153	0.00134 1/K	0.00127 1/K	0.00121 1/K	0.00116 1/K	0.00112 1/K	0.00107 1/K	0.00104 1/K	0.000999 1/K	0.000971 1/K	0.000945 1/K
328.15 K, x1 = 0.3016	0.00129 1/K	0.00122 1/K	0.00117 1/K	0.00112 1/K	0.00108 1/K	0.00104 1/K	0.00101 1/K	0.000975 1/K	0.000948 1/K	0.000922 1/K
328.15 K, x1 = 0.4075	0.00123 1/K	0.00117 1/K	0.00113 1/K	0.00108 1/K	0.00104 1/K	0.00101 1/K	0.000977 1/K	0.000948 1/K	0.00092 1/K	0.000894 1/K
328.15 K, x1 = 0.503	0.00118 1/K	0.00113 1/K	0.00108 1/K	0.00104 1/K	0.00101 1/K	0.000979 1/K	0.000952 1/K	0.000922 1/K	0.000899 1/K	0.000877 1/K
328.15 K, x1 = 0.594	0.00113 1/K	0.00108 1/K	0.00105 1/K	0.00101 1/K	0.00098 1/K	0.000949 1/K	0.000921 1/K	0.000893 1/K	0.000872 1/K	0.000851 1/K
328.15 K, x1 = 0.6827	0.00108 1/K	0.00104 1/K	0.00101 1/K	0.000973 1/K	0.000945 1/K	0.000918 1/K	0.000891 1/K	0.000865 1/K	0.000843 1/K	0.000823 1/K
328.15 K, x1 = 0.8013	0.00102 1/K	0.000985 1/K	0.000957 1/K	0.000926 1/K	0.0009 1/K	0.000874 1/K	0.00085 1/K	0.000825 1/K	0.000808 1/K	0.000789 1/K
328.15 K, x1 = 0.8934	0.000972 1/K	0.000945 1/K	0.000917 1/K	0.000889 1/K	0.000869 1/K	0.000845 1/K	0.000823 1/K	0.000802 1/K	0.000783 1/K	0.000767 1/K
328.15 K, x1 = 1	0.000929 1/K	0.0009 1/K	0.000876 1/K	0.000854 1/K	0.000833 1/K	0.000813 1/K	0.000794 1/K	0.000776 1/K	0.000759 1/K	0.000745 1/K
348.15 K, x1 = 0.0321	0.00153 1/K	0.00141 1/K	0.00133 1/K	0.00126 1/K	0.00119 1/K	0.00114 1/K	0.00109 1/K	0.00105 1/K	0.00101 1/K	0.00098 1/K
348.15 K, x1 = 0.041	0.00152 1/K	0.00142 1/K	0.00133 1/K	0.00126 1/K	0.0012 1/K	0.00114 1/K	0.0011 1/K	0.00105 1/K	0.00101 1/K	0.00098 1/K
348.15 K, x1 = 0.0946	0.00151 1/K	0.00141 1/K	0.00133 1/K	0.00126 1/K	0.00119 1/K	0.00114 1/K	0.0011 1/K	0.00105 1/K	0.00102 1/K	0.000988 1/K
348.15 K, x1 = 0.1679	0.00147 1/K	0.00138 1/K	0.0013 1/K	0.00123 1/K	0.00118 1/K	0.00113 1/K	0.00108 1/K	0.00104 1/K	0.001 1/K	0.000967 1/K
348.15 K, x1 = 0.2153	0.00144 1/K	0.00135 1/K	0.00128 1/K	0.00122 1/K	0.00116 1/K	0.00111 1/K	0.00107 1/K	0.00103 1/K	0.000999 1/K	0.000968 1/K
348.15 K, x1 = 0.3016	0.00138 1/K	0.0013 1/K	0.00124 1/K	0.00118 1/K	0.00112 1/K	0.00108 1/K	0.00104 1/K	0.00101 1/K	0.000976 1/K	0.000944 1/K
348.15 K, x1 = 0.4075	0.00132 1/K	0.00125 1/K	0.00119 1/K	0.00113 1/K	0.00109 1/K	0.00105 1/K	0.00101 1/K	0.000981 1/K	0.00095 1/K	0.000924 1/K
348.15 K, x1 = 0.503	0.00126 1/K	0.0012 1/K	0.00114 1/K	0.0011 1/K	0.00106 1/K	0.00102 1/K	0.000989 1/K	0.000956 1/K	0.000929 1/K	0.000904 1/K
348.15 K, x1 = 0.594	0.00121 1/K	0.00115 1/K	0.0011 1/K	0.00106 1/K	0.00102 1/K	0.000993 1/K	0.00096 1/K	0.000928 1/K	0.000904 1/K	0.000882 1/K
348.15 K, x1 = 0.6827	0.00116 1/K	0.00111 1/K	0.00107 1/K	0.00103 1/K	0.000994 1/K	0.000963 1/K	0.000933 1/K	0.000903 1/K	0.000881 1/K	0.000859 1/K
348.15 K, x1 = 0.8013	0.00109 1/K	0.00105 1/K	0.00101 1/K	0.000979 1/K	0.000947 1/K	0.00092 1/K	0.000892 1/K	0.000866 1/K	0.000845 1/K	0.000824 1/K
348.15 K, x1 = 0.8934	0.00104 1/K	0.001 1/K	0.00097 1/K	0.00094 1/K	0.000911 1/K	0.000886 1/K	0.000862 1/K	0.000838 1/K	0.000817 1/K	0.000797 1/K
348.15 K, x1 = 1	0.000995 1/K	0.00096 1/K	0.000929 1/K	0.000903 1/K	0.000875 1/K	0.000852 1/K	0.000831 1/K	0.000808 1/K	0.000791 1/K	0.000772 1/K
